Data reported in PubChem BioAssay (NCI).
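Tested at 5 concentrations; 48 h exposure; 96-well plates; endpoints linearly interpolated, else capped at highest concentration. TGI: total growth inhibition.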

Key:
Assay in all cases: inhibition of tumour cell growth, NCI panel, 48 h
MDA-MB-435 = test system: MDA-MB-435
HCT-116 colon = test system: HCT-116 colon
SW-620 colon = test system: SW-620 colon
U251 CNS = test system: U251 CNS
PC-3 prostate = test system: PC-3 prostate
NCI/ADR-RES ovarian = test system: NCI/ADR-RES ovarian
SNB-75 CNS = test system: SNB-75 CNS
OVCAR-5 ovarian = test system: OVCAR-5 ovarian
NCI-H23 lung = test system: NCI-H23 lung
M14 melanoma = test system: M14 melanoma
NCI-H522 lung = test system: NCI-H522 lung
NCI-H460 lung = test system: NCI-H460 lung
SN12C renal = test system: SN12C renal
HOP-62 NSCLC = test system: HOP-62 NSCLC
MDA-N = test system: MDA-N
MOLT-4 leukemia = test system: MOLT-4 leukemia
MCF7 breast = test system: MCF7 breast
SF-295 CNS = test system: SF-295 CNS
SK-MEL-5 melanoma = test system: SK-MEL-5 melanoma
HOP-92 NSCLC = test system: HOP-92 NSCLC
OVCAR-3 ovarian = test system: OVCAR-3 ovarian
EKVX NSCLC = test system: EKVX NSCLC
MDA-MB-231 breast = test system: MDA-MB-231 breast
MALME-3M melanoma = test system: MALME-3M melanoma
NCI-H226 lung = test system: NCI-H226 lung
UACC-62 melanoma = test system: UACC-62 melanoma
HL-60(TB) leukemia = test system: HL-60(TB) leukemia
UACC-257 melanoma = test system: UACC-257 melanoma
HS 578T breast = test system: HS 578T breast
UO-31 renal = test system: UO-31 renal
HT29 colon = test system: HT29 colon
LOX IMVI melanoma = test system: LOX IMVI melanoma
HCC-2998 colon = test system: HCC-2998 colon
SK-MEL-28 melanoma = test system: SK-MEL-28 melanoma
OVCAR-4 ovarian = test system: OVCAR-4 ovarian
SK-MEL-2 melanoma = test system: SK-MEL-2 melanoma
786-0 renal = test system: 786-0 renal
KM12 colon = test system: KM12 colon
SF-268 CNS = test system: SF-268 CNS
TK-10 renal = test system: TK-10 renal
ACHN renal = test system: ACHN renal
BT-549 breast = test system: BT-549 breast
SK-OV-3 ovarian = test system: SK-OV-3 ovarian
IGROV1 ovarian = test system: IGROV1 ovarian
SNB-19 CNS = test system: SNB-19 CNS
CAKI-1 renal = test system: CAKI-1 renal
RPMI-8226 leukemia = test system: RPMI-8226 leukemia
CCRF-CEM leukemia = test system: CCRF-CEM leukemia
COLO 205 colon = test system: COLO 205 colon
A549 NSCLC = test system: A549 NSCLC
K-562 leukemia = test system: K-562 leukemia
HCT-15 colon = test system: HCT-15 colon
OVCAR-8 ovarian = test system: OVCAR-8 ovarian
SR leukemia = test system: SR leukemia
A498 renal = test system: A498 renal
DU-145 prostate = test system: DU-145 prostate
T-47D breast = test system: T-47D breast
RXF 393 renal = test system: RXF 393 renal

Measured: TGI

Cc1ccc(NC(=O)c2cc(S(=O)(=O)Nc3n[nH]c(=O)[nH]3)c(SSc3cc(Cl)c(C(=O)Nc4ccc(C)cc4)cc3S(=O)(=O)Nc3n[nH]c(=O)[nH]3)cc2Cl)cc1
not listed: DU-145 prostate | T-47D breast | RXF 393 renal
> 100 µM: all other assays above

OCCN(CCO)c1ncnc2nc[nH]c12
not listed: SNB-75 CNS | HL-60(TB) leukemia | SK-MEL-2 melanoma | SR leukemia
> 100 µM: all other assays above
